Measurements from patent EP0703776B1, “UTILIZATION OF A PEPTIDE HAVING A LYSIN GROUP AND AN ALANINE GROUP IN THE TERMINAL POSITION FOR THE PREPARATION OF A DEPIGMENTING COMPOSITION, AND DEPIGMENTING COMPOSITION THUS OBTAINED” (PARFUMS CHRISTIAN DIOR, priority 1993, dated 1997).
No end group written: not given here.

Tested on: tyrosinase de champignon
Assay: Tyrosinase inhibition (kinetics of dopaquinone formation at 480 nm, substrates L-tyrosine + L-dopa)
Assay type: biochemical

pourcentage d'inhibition de la tyrosinase (peptide 5.10^-3 M, series T0 (substrates added at time T0)): 98% | pourcentage d'inhibition de la tyrosinase (peptide 5.10^-4 M, series T 15 min (substrates added 15 min after mixing peptide and tyrosinase)): 98% | effet d'inhibition de la tyrosinase (peptide 5.10^-6 M, result in words): déjà très significative
Substance: KCTCCA (cysteine pairing not given here) [hexapeptide, commercialement disponible chez Sigma, France]
